Results published in US20240374692A1, “A NOVEL ACYLATED INSULIN ANALOG” (SUNSHINE LAKE PHARMA CO., LTD., priority 2021, published 2024).

Key:
[1] = system: normal C57BL/6 mice; assay: Hypoglycemic effect, single subcutaneous administration to normal C57BL/6 mice; type: in vivo; design: blood glucose: unit not given here; conditions: for blood glucose / effective blood glucose control time / time after administration at which blood glucose reached the lowest level / time after administration at which blood glucose returned to normal: Degludec 200 nmol/Kg, others 1400 nmol/Kg; for blood glucose: Mean ± SEM, n = 6; for blood glucose compared with the control group: 1 h after single S.C. administration
Protocol: SPF grade C57BL/6 mice were reared in a suitable rearing box in a barrier environment, with a rearing temperature of 20-26° C., a humidity of 40-70%, a time between day and night of 12 h/12 h, and the mice had free access to standard food and autoclaved sterilization water. After a 3-day quarantine period and a 2-day acclimation period, random blood glucose was measured and mice were weighed. Mice were divided into 6 groups according to random blood glucose and body weight.
Single subcutaneous administration (S.C.) was used to administer the corresponding vehicle or drug. The control group was administered the vehicle PBS without fasting during the whole process, and the animals were allowed to eat and drink freely. Random blood glucose values of C57 mice were measured before administration and at 0.25, 0.5, 1, 2, 4, 6, 8, 10, 24, 48, 54, 72 and 96 hours after administration.
All raw data were entered into Excel files and expressed as Mean±SEM. Statistical analysis of data was performed using Graphpad Prism 7.0 software, one-way or two-way ANOVA comparison method, and P<0.05 was used as the criterion for significant differences.

[2] = target: T1, insulin receptor B (Homo sapiens, UniProt P06213); assay: Insulin receptor B autophosphorylation in transfected cells (Cisbio Phospho-IR beta Tyr1150/1151 kit); type: cell-based; conditions: for Relative HI activity: relative to human insulin
T1 construct: expressed in transfected cells
Protocol: The phosphorylation level of insulin receptor B was detected by Cisbio's Phospho-IR beta (Tyr1150/1151) kit method to evaluate the biological activity of insulin. The cells were seeded into a 96-well plate overnight, and after the serum in the medium was removed, 40 μl of serum-free medium was added to culture for about 4 h. Then a dilution series of insulin derivatives were prepared with blank solution (0.6% casein, 0.06 mg/mL EDTA, 1×DPBS) and incubated with cells in the 96-well plate for 5 min in a CO2 incubator (37° C., 5% CO2). The liquid in the 96-well plate was poured off, 100 µL of a mixture of lysis buffer (2% Triton X-100, 150 mM NaCl, 50 mM HEPES, pH=7) and inhibitor (Blocking Reagent in the kit) was added to lyse the cells, then the plate was shaken at 350 rpm for 30 min. Relative activity (in percent (%)) was assessed by measuring insulin receptor phosphorylation levels in the supernatant after cell lysis and fitting a curve to the data using nonlinear regression in Graphpad Prism 5 software. Related assays were also used, in which the blank solution also contained 1.5% HSA to simulate physiological conditions. Changes in the phosphorylation levels of the insulin-activated insulin receptors of the invention were detected as an indirect reflection of the albumin binding activity.

[3] = 0 h (before administration), single S.C.

T1 sequence (P06213 28-758 limits assumed): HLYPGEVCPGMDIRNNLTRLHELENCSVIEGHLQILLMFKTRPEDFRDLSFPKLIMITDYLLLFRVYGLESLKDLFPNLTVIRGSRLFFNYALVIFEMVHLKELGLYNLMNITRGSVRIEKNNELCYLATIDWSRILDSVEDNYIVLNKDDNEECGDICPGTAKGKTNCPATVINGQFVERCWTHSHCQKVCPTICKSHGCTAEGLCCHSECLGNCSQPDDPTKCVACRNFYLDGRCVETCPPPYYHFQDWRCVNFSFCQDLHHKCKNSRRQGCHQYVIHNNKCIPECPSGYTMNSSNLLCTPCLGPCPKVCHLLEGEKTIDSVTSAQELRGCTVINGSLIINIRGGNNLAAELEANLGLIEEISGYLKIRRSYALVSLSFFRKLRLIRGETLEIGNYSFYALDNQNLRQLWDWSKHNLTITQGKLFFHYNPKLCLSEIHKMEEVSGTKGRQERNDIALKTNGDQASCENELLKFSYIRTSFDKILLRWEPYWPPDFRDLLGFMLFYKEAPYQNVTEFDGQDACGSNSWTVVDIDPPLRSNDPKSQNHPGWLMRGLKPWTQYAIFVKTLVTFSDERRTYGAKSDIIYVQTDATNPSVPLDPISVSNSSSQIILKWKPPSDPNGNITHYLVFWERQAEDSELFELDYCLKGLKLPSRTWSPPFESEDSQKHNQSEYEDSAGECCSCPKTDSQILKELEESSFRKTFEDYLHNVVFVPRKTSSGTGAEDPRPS
T1 sequence (P06213 763-1382 partner limits assumed): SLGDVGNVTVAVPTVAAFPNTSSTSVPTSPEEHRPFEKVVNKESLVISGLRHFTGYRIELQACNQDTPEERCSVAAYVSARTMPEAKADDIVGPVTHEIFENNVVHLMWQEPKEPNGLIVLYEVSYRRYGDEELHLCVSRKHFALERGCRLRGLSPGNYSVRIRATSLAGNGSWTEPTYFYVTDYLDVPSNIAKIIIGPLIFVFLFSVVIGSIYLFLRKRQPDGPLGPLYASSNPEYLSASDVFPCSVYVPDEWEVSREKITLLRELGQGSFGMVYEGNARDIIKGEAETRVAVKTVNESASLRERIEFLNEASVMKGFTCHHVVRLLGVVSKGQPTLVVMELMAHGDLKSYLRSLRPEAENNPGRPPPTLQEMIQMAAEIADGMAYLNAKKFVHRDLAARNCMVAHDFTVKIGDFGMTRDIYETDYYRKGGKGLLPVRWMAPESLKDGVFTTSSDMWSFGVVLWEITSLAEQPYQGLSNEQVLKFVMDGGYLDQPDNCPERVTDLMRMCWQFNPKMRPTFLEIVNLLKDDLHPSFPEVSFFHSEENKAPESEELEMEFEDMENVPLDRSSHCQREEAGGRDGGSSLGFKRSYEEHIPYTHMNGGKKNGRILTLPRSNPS

Substance	blood glucose [1, 3]	blood glucose ([1]; 0.25 h after single S.C.)	blood glucose ([1]; 0.5 h after single S.C.)	blood glucose compared with the control group [1]	blood glucose ([1]; 1 h after single S.C.)	blood glucose ([1]; 2 h after single S.C.)	blood glucose ([1]; 4 h after single S.C.)	blood glucose ([1]; 6 h after single S.C.)	blood glucose ([1]; 8 h after single S.C.)	blood glucose ([1]; 10 h after single S.C.)	blood glucose ([1]; 24 h after single S.C.)	blood glucose ([1]; 48 h after single S.C.)	blood glucose ([1]; 72 h after single S.C.)	blood glucose ([1]; 96 h after single S.C.)	effective blood glucose control time ([1]; single S.C.) [h]	time after administration at which blood glucose reached the lowest level ([1]; single S.C.) [h]	time after administration at which blood glucose returned to normal ([1]; single S.C.) [h]	also measured
A14E, B16E, B25H, B29K(N(ε)-COOH(CH2)16CO-L-Lys-CO(CH2)2CO—(OEG)2), desB30 human insulin analog [Insulin-a4]	8.0 ± 1.3	9.0 ± 1.9	6.2 ± 1.6	decreased significantly	5.0 ± 0.5	4.8 ± 0.5	3.9 ± 0.5	3.8 ± 1.1	3.2 ± 0.6	3.0 ± 0.6	5.3 ± 1.8	8.7 ± 0.9	8.0 ± 0.9	7.9 ± 1.1	48	10	48	
insulin degludec [reference compound]	7.8 ± 0.8	6.5 ± 1.1	5.0 ± 0.4	decreased significantly	4.7 ± 1.1	4.4 ± 1.3	5.4 ± 0.6	5.4 ± 1.2	5.8 ± 0.8	5.7 ± 0.9	8.3 ± 0.9	8.0 ± 0.3	8.0 ± 0.8	7.9 ± 0.3	24	2	24	EC50 ([2]; 0% HSA): 0.00455 µM; Relative HI activity ([2]; 0% HSA): 27.07%; EC50 ([2]; 1.5% HSA): 0.0206 µM; Relative 0% HSA activity ([2]; 1.5% HSA relative to 0% HSA): 22.10%; Relative HI activity ([2]; 1.5% HSA): 12.59%
